# Measured values published in patent publication US20090227507A1, “Angiotensin (1-7) Dosage Forms and Uses Thereof” (UNIVERSITY OF SOUTHERN CALIFORNIA, priority 2008, published 2009).
# System: CD8 cells in peripheral blood
# Experiment: Flow cytometry of peripheral blood, CD8 lymphocytes; USB003 SC once daily for 7 days in healthy men
# Type: in vivo, human
# Design: key to Subjects with shift, Absolute CD8, N-L (normal to low) / Subjects with shift, Absolute CD8, L-N (low to normal) / Subjects with shift, Absolute CD8, H-N (high to normal) / Subjects with shift, Absolute CD8, N-H (normal to high): — signifies subject with no shift from baseline
# Settings: for CD8, Absolute, Mean at Baseline: Baseline (Day 1)
# Procedure: • Single-center, randomized, double-blind, placebo-controlled, 2 cohort dose-escalation trial of once daily dosing over a 7-day period (7 doses total): • Cohort 1: 2 subjects treated with placebo and 8 subjects treated with 200 μg/kg USB003 (A(1-7)) • Cohort 2: 2 subjects treated with placebo and 8 subjects treated with 300 μg/kg USB003 • For each cohort, there was a Screening Period, Treatment Phase, Follow-up Period, and Study Termination or Early Withdrawal Day. Subjects were confined to the study unit during the Treatment Phase. • Cohort 2 was treated approximately 1 week after completion of the Treatment Phase for Cohort 1 to allow time for the assessment of safety and tolerability in the first cohort.
# Pharmacological Effect: The following evaluations (under efficacy and safety in the protocol) were performed: • Effects on the number of mature blood cells: • 1. CBC (with differential), platelet count, reticulocyte count. • Effects on early hematopoietic progenitor cells and mature lymphocyte subsets in the periphery: • 1. Flow cytometry to evaluate frequency of peripheral blood progenitor cells (eg, CD34^+) and lymphocyte subsets (eg, CD3, CD4, CD8) in peripheral blood. • 2. Collection of blood for later possible culture for progenitor cells (eg, colony forming units-granulocyte/macrophage [CFU-GM]) to evaluate potential effects on CD34^+ hematopoietic progenitor cells in peripheral blood. • 3.
# The effect of USB003 on the number of mature blood cells was assessed by the complete blood count with differential, platelet and reticulocyte counts. The effects on early hematopoietic progenitor cells and mature lymphocyte subsets in the periphery were assessed by flow cytometry. In addition, blood was collected and processed to enable culture of progenitors at a later time.
# Red blood cell (RBC) count, RBC indices, white blood cell count (WBC) with differential, reticulocyte count, platelet count, hemoglobin (Hb), hematocrit (Hct), plasma hemoglobin, peripheral flow cytometry, including CD34^+, flow cytometry for enumeration of CD3, CD4, and CD8 lymphocytes, and culture for progenitor cells in peripheral blood including colony-forming units-granulocyte/macrophage (CFU-GM).
substance,measurement,setting,value
Asp-Arg-Val-Tyr-Ile-His-Pro [USB003],"CD8, Absolute, Mean at Baseline",200 μg/kg,564.6 cells/μL
same,"Subjects with shift, Absolute CD8, H-N (high to normal)","200 μg/kg, Baseline to Day 8",—
same,"Subjects with shift, Absolute CD8, L-N (low to normal)","200 μg/kg, Baseline to Day 8",—
same,"Subjects with shift, Absolute CD8, N-H (normal to high)","200 μg/kg, Baseline to Day 8",1
same,"Subjects with shift, Absolute CD8, N-L (normal to low)","200 μg/kg, Baseline to Day 8",—
same,"Subjects with shift, Absolute CD8, H-N (high to normal)","200 μg/kg, Baseline to Day 20",—
same,"Subjects with shift, Absolute CD8, L-N (low to normal)","200 μg/kg, Baseline to Day 20",—
same,"Subjects with shift, Absolute CD8, N-H (normal to high)","200 μg/kg, Baseline to Day 20",—
same,"Subjects with shift, Absolute CD8, N-L (normal to low)","200 μg/kg, Baseline to Day 20",—
same,"CD8, Absolute, Mean Change from Baseline","200 μg/kg, Day 3",−34.2 cells/μL
same,"CD8, Absolute, Mean Change from Baseline","200 μg/kg, Day 5",31.9 cells/μL
same,"CD8, Absolute, Mean Change from Baseline","200 μg/kg, Day 7",0.0 cells/μL
same,"CD8, Absolute, Mean Change from Baseline","200 μg/kg, Day 8",−3.3 cells/μL
same,"CD8, Absolute, Mean Change from Baseline","200 μg/kg, Day 17",−52.8 cells/μL
same,"CD8, Absolute, Mean Change from Baseline","200 μg/kg, Day 20",−31.7 cells/μL
same,"CD8, Absolute, Mean at Baseline",300 μg/kg,452.1 cells/μL
same,"Subjects with shift, Absolute CD8, H-N (high to normal)","300 μg/kg, Baseline to Day 8",—
same,"Subjects with shift, Absolute CD8, L-N (low to normal)","300 μg/kg, Baseline to Day 8",—
same,"Subjects with shift, Absolute CD8, N-H (normal to high)","300 μg/kg, Baseline to Day 8",1
same,"Subjects with shift, Absolute CD8, N-L (normal to low)","300 μg/kg, Baseline to Day 8",—
same,"Subjects with shift, Absolute CD8, H-N (high to normal)","300 μg/kg, Baseline to Day 20",—
same,"Subjects with shift, Absolute CD8, L-N (low to normal)","300 μg/kg, Baseline to Day 20",—
same,"Subjects with shift, Absolute CD8, N-H (normal to high)","300 μg/kg, Baseline to Day 20",—
same,"Subjects with shift, Absolute CD8, N-L (normal to low)","300 μg/kg, Baseline to Day 20",—
same,"CD8, Absolute, Mean Change from Baseline","300 μg/kg, Day 3",59.5 cells/μL
same,"CD8, Absolute, Mean Change from Baseline","300 μg/kg, Day 5",71.0 cells/μL
same,"CD8, Absolute, Mean Change from Baseline","300 μg/kg, Day 7",93.6 cells/μL
same,"CD8, Absolute, Mean Change from Baseline","300 μg/kg, Day 8",45.1 cells/μL
same,"CD8, Absolute, Mean Change from Baseline","300 μg/kg, Day 17",−47.3 cells/μL
same,"CD8, Absolute, Mean Change from Baseline","300 μg/kg, Day 20",26.8 cells/μL
